Values joined by “and” are separate entries in the source; they are usually repeats but may differ in a detail not shown here. Equal entries are not always repeated.
Assays:
[1] = target: T1, EGFR-TK (Homo sapiens, UniProt P00533); experiment: Inhibitory potency against EGFR-TK (SignaTECT protein kinase assay, [32P]ATP phosphorylation); assay type: biochemical; parameters: The EGF receptor used was an immunopurified receptor from human A431 cells (Promega, WI); purchased Promega; host or cells: A431 cells (endogenous receptor, immunopurified); details: immunopurified EGF receptor from human A431 cells, inhibition of phosphorylation by [32P]ATP, triplicate
Experimental: The inhibitory potency of the new derivatives against EGFR-TK was measured using a Signa TECT® Protein Kinase Assay System (Promega, WI) according to the protein tyrosine kinase assay protocol of the attached document. The EGF receptor used was an immunopurified receptor from human A431 cells (Promega, WI). […] The reaction was allowed to proceed for 10 min at 30 °C and then was stopped by the addition of guanidine hydrochloride solution (7.5 M, 13 μL). Each reaction mixture (12.5 μL) was spotted onto a biotin capture membrane. After all of the samples had been spotted, they were washed and rinsed as follows: 1 time for 30 s with 200 mL of 2 M NaCl, 3 times for 2 min each with 200 mL of 2 M NaCl, 4 times for 2 min each with 200 mL of 2 M NaCl in 1 % H3PO4, and 2 times for 30 s each with 100 mL of deionized water. The biotin capture membranes were dried on a piece of aluminum foil under a heat lamp for 5–10 min. The radioactivity trapped on the biotin capture membranes was counted with a liquid scintillation counter in 10 mL of scintillation fluid. The IC50 values were determined from sigmoid curves of the percent inhibition of [^32P]ATP radioactivity.
The inhibitory potency of new phenoxyquinazoline derivatives against EGFR-TK in A431 cell membranes was measured as the inhibition of EGFR phosphorylation by [^32P]ATP.

[2] = target: T1, EGFR-TK; details: inhibitor 1 μM, A431 P2 membranes, 60 min, 25 °C
From the text: The difference between non-treatment and pretreatment data was examined by Student’s paired t test.

[3] = tested on: A431 epidermoid carcinoma cell line; details: in vitro; ref [12], [13]; read-out: IC50, cytotoxicity A431 epidermoid carcinoma cell line; cited from earlier work
[4] = tested on: EGFR-TK; parameters: method as in PMID 21058048, PMID 22354330; details: ref [21], [22]; cited from earlier work
[5] = tested on: A431 tumor; experiment: Tumor uptake of radioiodinated ligands in A431 tumor-bearing mice; assay type: in vivo, balb/c nude mice; details: A431 tumor-bearing mice; for accumulation in tumors: i.v., 1 h post injection
Experimental: A suspension of 1 × 10^7 A431 cells in 0.1 mL of medium was inoculated subcutaneously in male balb/c nude mice (4 weeks old, 20–25 g, n = 3). After approximately 2 weeks, when the solid tumor had grown to optimal size, the mice were used for tumor uptake studies. [^125I]6a–d (37 kBq, 74 TBq/mmol) in 0.1 mL of saline was injected intravenously into tumor-bearing mice via the lateral tail vein. At 1 or 24 h after administration, the animals were sacrificed. Samples of tumor were excised and weighed. Radioactivity was measured using a well-type NaI(Tl) scintillation gamma counter. The results were expressed in terms of percentage of injected dose per gram of tumor.

[6] = parameters: method as in PMID 21058048, PMID 22354330; details: ref [21], [22]; cited from earlier work
[7] = target: EGFR-TK in A431 cell membranes (Homo sapiens, UniProt P00533); assay type: binding; details: A431 P2 membranes, Scatchard analysis
Experimental: Assays were carried out as described in the previous section. Crude P2 membrane fractions (A431or NALM6, 0.1 mg of protein, 10 μL) and [^125I]PYK (1–300 nM, 100 μL, 0.74 kBq) were used. […] Specific binding was defined as the difference between the total and non-specific binding. Scatchard plot analysis of the saturation binding data was used to determine the equilibrium dissociation constant (K d) and the maximal number of binding sites (B max).
The crude P2 membrane fraction from A431 or NAlM6 cells were used in further binding experiments for pharmacological characterization. […] While, in the NALM6 as a negative-EGFR leukemia cell line, [^125I]PYK binding to cell membranes was undetectable.

T1 sequence (P00533 25-1210): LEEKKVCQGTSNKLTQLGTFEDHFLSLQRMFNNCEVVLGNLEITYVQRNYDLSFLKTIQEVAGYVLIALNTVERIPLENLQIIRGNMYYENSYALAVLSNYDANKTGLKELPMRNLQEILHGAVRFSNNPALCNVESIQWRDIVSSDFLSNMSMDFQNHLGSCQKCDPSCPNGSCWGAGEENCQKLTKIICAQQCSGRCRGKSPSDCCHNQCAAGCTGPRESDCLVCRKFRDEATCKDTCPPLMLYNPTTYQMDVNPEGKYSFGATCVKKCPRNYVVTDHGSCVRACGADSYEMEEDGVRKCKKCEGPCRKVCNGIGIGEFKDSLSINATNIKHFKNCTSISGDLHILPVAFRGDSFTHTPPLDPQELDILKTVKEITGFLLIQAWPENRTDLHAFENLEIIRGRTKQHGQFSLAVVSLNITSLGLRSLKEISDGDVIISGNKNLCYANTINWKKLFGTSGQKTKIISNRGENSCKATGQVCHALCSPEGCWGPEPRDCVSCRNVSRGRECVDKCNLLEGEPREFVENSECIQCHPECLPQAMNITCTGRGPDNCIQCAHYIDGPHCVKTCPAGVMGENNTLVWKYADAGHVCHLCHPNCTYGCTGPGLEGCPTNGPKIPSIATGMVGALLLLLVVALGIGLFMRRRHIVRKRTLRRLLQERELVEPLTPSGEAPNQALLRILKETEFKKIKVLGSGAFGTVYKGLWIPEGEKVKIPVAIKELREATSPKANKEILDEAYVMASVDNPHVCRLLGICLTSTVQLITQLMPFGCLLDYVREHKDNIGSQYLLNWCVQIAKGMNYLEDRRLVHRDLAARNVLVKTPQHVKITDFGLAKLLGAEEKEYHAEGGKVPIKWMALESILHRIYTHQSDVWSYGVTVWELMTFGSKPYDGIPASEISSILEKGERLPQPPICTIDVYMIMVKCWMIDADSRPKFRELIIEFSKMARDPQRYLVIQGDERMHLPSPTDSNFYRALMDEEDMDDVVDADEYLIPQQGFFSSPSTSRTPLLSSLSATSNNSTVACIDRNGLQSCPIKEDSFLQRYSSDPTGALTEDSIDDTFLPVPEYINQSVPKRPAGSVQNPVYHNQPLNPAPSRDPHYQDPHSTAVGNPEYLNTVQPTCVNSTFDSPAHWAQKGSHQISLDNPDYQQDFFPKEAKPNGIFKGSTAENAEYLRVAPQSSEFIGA
Chain of EGFR-TK in A431 cell membranes (P00533 25-1210): as above

Row | Structure (SMILES) | IC50 [1] | melting point [°C] | other results
1 | CCOc1cc2ncnc(Oc3cccc(I)c3)c2cc1OCCCN1CCOCC1 [6a, 6-(3-Morpholinopropoxy)-7-ethoxy-4-(3′-iodophenoxy)quinazoline] | 12 ± 3.9 nM | 135 to 137 | 
2 | O=P(O)(O)C(O)c1ccc2ccccc2c1 (centres unmarked) [HNMPA] |  |  | blocking effect on [125I]PYK binding to EGFR-TK [2]: failed to block
3 | COc1cc2ncnc(Nc3cccc(Br)c3)c2cc1OC [PD153035, 4-(3-bromoanilino)-6,7-dimethoxyquinazoline] |  |  | IC50 [3]: 0.029 nM
4 | CCOc1cc2ncnc(Oc3cccc(I)c3)c2cc1OCC [PHY, 4-(3-Iodophenoxy)-6,7-diethoxyquinazoline, reference compound] | 49 ± 7.2 nM |  | IC50 [4]: 49 ± 7.2 nM
5 | CCOc1cc2ncnc(Oc3cccc([125I])c3)c2cc1OCCCN(C)C [[^125I]6d] |  |  | retention in tumors (in words) ([5]; 24 h after injection): low retention; accumulation in tumors [5]: 0.55 ± 0.12 % ID/g tissue
6 | CCOc1cc2ncnc(Oc3cccc([125I])c3)c2cc1OCC [[^125I]PHY] |  |  | tumor-to-blood ratio [6]: 0.94–1.50; tumor-to-muscle ratio [6]: 1.02–1.95; accumulation in tumors [5]: 0.56 ± 0.12 % ID/g tissue
7 | CCOc1cc2ncnc(Oc3cccc(I)c3)c2cc1OCCCN1CCOCC1 [[^125I]PYK] |  |  | Kd [7]: 51.3 ± 11.1 nM
8 | CCOc1cc2ncnc(Nc3cccc(I)c3)c2cc1OCC [m-IPQ, 4-(3-Iodoanilino)-6,7-diethoxyquinazoline] |  |  | IC50 [4]: 50.5 ± 3.5 nM; blocking effect on [125I]PYK binding to EGFR-TK [2]: significant reduction

Second part, led by results:

Row | IC50 [1] | melting point [°C] | Structure (SMILES) | other results
9 | 16.5 ± 1.8 nM |  | CCOc1cc2ncnc(Oc3cccc(I)c3)c2cc1OCCCN1CCN(C)CC1 [6b, 6-[3-(4-Methylpiperazinylpropoxy)]-7-ethoxy-4-(3′-iodophenoxy)quinazoline] | 
10 | 41.5 nM and 113 nM | 59 to 62 | CCOc1cc2ncnc(Oc3cccc(I)c3)c2cc1OC(C)C [6c, 6-Isopropoxy-7-ethoxy-4-(3′-iodophenoxy)quinazoline] | 
11 | 113 nM and 41.5 nM | 64 to 67 | CCOc1cc2ncnc(Oc3cccc(I)c3)c2cc1OCCCN(C)C [6d, 6-(3-Dimethylaminopropoxy)-7-ethoxy-4-(3′-iodophenoxy) quinazoline] | 
12 | > 500 nM | 108 to 109 | CCOc1cc2ncnc(Oc3cccc(I)c3)c2cc1OCCCc1ccccc1 [6e, 6-(3-Phenylpropoxy)-7-ethoxy-4-(3′-iodophenoxy)quinazoline] | 
13 | > 500 nM | 140 to 142 | CCOc1cc2ncnc(Oc3cccc(I)c3)c2cc1OCc1ccccc1 [6f, 6-Benzyloxy-7-ethoxy-4-(3′-iodophenoxy)quinazoline] | 
